Measured values from ChEMBL document CHEMBL3045983, “Ajugatakasins A and B, New Diterpenoids fromAjuga decumbens, and Feeding Stimulative Activity of Related Neoclerodane Analogs toward the Turnip Sawfly” (1997).

Assays:
Type in all cases: functional
Athalia rosae ruficornis [1] = assay: Induction of feeding in larvae of Athalia rosae ruficornis on leaves of Ajuga decumbens assessed as feeding response measured for 10 seconds relative to control; parameters: concentration or dose not given beside the values
Athalia rosae ruficornis [2] = assay: Induction of feeding in larvae of Athalia rosae ruficornis on leaves of Ajuga decumbens assessed as feeding response at 10 ug/64 mm'2 of filter paper measured for 10 seconds
Athalia rosae ruficornis [3] = assay: Induction of feeding in larvae of Athalia rosae ruficornis on leaves of Ajuga decumbens assessed as feeding response at 0.1 ug/64 mm'2 of filter paper measured for 10 seconds

Structure (SMILES)	Activity (Athalia rosae ruficornis [1]) [%]	Activity (Athalia rosae ruficornis [2]) [%]	Activity (Athalia rosae ruficornis [3]) [%]
C/C=C(\C)C(=O)O[C@@H]1CC[C@]2(CO2)[C@]2(COC(C)=O)[C@@H](OC(C)=O)C[C@@H](C)[C@](C)(C[C@H](O)C3=CC(=O)OC3)[C@@H]12 [AJUGAMARIN A1]	46.3	0	0
C/C=C(\C)C(=O)O[C@@H]1CC[C@]2(CO2)[C@]2(COC(C)=O)[C@@H](OC(C)=O)C[C@@H](C)[C@](C)(C[C@H](OC(=O)[C@@H](C)CC)C3=CC(=O)OC3)[C@@H]12 [AJUGAMARIN G1]	9.3	0	0
C/C=C(\C)C(=O)O[C@@H](C[C@@]1(C)[C@H](C)C[C@H](OC(C)=O)[C@]2(COC(C)=O)[C@@H]1[C@H](OC(=O)[C@@H](C)CC)CC[C@]21CO1)C1=CC(=O)OC1 [AJUGAMARIN H1]	7	0	0
C/C=C(\C)C(=O)O[C@@H](C[C@@]1(C)[C@H](C)C[C@H](OC(C)=O)[C@]2(COC(C)=O)[C@@H]1[C@H](OC(=O)/C(C)=C/C)CC[C@]21CO1)C1=CC(=O)OC1 [AJUGATAKASIN A]	28.4	0	0
CC[C@H](C)C(=O)O[C@@H](C[C@@]1(C)[C@H](C)C[C@H](OC(C)=O)[C@]2(COC(C)=O)[C@@H]1[C@H](OC(=O)[C@@H](C)CC)CC[C@]21CO1)C1=CC(=O)OC1 [AJUGATAKASIN B]	0.4	0	0
CC[C@H](C)C(=O)O[C@H]1[C@H](O)C[C@@H]2[C@@](C)([C@@H]3C[C@H]4C=CO[C@H]4O3)[C@H](C)C[C@H](OC(C)=O)[C@@]2(COC(C)=O)[C@@]12CO2 [CLERODENDRIN D]	0.08	100	88
CCC(C)C(=O)O[C@@H]1CC[C@]2(CO2)[C@]2(COC(C)=O)[C@@H](OC(C)=O)C[C@@H](C)[C@](C)(C[C@H](O)C3=CC(=O)OC3)[C@@H]12 (stereo partly specified) [DIHYDROAJUGAMARIN]	8.6	0	0
